Data: PMC7349874, “High Content Screening Using New U2OS Reporter Cell Models Identifies Harmol Hydrochloride as a Selective and Competitive Antagonist of the Androgen Receptor” (Cells, 2020)
Counter-ions that a name gives are not always drawn. Like-named read-outs stand apart in the source and are kept apart here.

Assays:
[1] = target: T1, full-length wild-type AR (hAR) (Homo sapiens, UniProt P10275); assay: Transactivation (luciferase) assay in U2OS-hAR-ARE-Luc reporter cells, screen and validation; assay type: cell-based; details: for Results of 1st screen on AR: 0.3, 1, 3, 10 µM, 16 h, hit = AR transcriptional activity changed by more than 50% dose-dependently, <20% effect in control cells; for Nature of AR inhibition (competitive or non-competitive): 1 nM versus 100 nM R1881
T1 sequence (P10275 1-920): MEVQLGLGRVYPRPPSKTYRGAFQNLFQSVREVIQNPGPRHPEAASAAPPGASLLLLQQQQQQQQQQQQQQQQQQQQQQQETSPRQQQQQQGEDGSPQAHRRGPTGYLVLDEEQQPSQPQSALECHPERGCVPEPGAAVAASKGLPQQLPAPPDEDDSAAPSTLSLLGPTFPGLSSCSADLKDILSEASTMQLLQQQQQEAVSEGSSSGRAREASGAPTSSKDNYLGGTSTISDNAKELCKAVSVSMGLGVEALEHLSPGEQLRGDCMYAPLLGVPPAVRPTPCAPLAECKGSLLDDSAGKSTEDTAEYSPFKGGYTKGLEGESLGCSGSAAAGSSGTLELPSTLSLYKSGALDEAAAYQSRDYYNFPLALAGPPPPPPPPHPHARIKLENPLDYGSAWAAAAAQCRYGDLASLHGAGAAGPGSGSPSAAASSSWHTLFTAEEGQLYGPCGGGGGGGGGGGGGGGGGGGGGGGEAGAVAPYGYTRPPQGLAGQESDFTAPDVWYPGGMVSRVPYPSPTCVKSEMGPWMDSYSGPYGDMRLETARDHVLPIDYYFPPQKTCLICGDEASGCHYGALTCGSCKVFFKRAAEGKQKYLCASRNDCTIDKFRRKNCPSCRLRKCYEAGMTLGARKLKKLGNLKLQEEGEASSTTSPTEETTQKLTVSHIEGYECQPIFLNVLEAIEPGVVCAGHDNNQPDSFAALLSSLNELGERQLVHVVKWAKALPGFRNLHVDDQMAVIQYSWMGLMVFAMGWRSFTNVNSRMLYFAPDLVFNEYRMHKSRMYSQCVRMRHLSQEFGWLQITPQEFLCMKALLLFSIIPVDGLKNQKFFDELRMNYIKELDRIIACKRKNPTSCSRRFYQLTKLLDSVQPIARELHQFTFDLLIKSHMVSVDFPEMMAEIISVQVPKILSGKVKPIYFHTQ
Experimental: U2OS-hAR-ARE(Rad9)-Luc and U2OS-hARv7-ARE(PB)-Luc were then used to screen the Prestwick phytochemical library®, containing 320 natural compounds, at four concentrations (0.3, 1, 3, 10 µM) in duplicate.

[2] = test system: U2OS-ARE-Luc control cells; assay: Luciferase activity in U2OS-ARE-Luc control cells; details: validation, up to 3 µM, 16 h

Row | Compound | Results of 1st screen on AR [1] | other results
1 | COc1ccc(-c2cc(=O)c3c(O)cc(O)cc3o2)cc1 [Acacetin] | No effect | –
2 | C[C@@H]1O[C@@H](O[C@H]2C(=O)c3c(O)cc(O)cc3O[C@@H]2c2ccc(O)c(O)c2)[C@H](O)[C@H](O)[C@H]1O [Astilbin] | No effect | –
3 | COc1ccc2cc3n(c(=O)c2c1OC)CCc1cc2c(cc1-3)OCO2 [Berlambine] | No effect | –
4 | C=C(C)[C@@H]1CC[C@]2(C(=O)O)CC[C@]3(C)[C@H](CC[C@@H]4[C@@]5(C)CC[C@H](O)C(C)(C)[C@@H]5CC[C@]43C)[C@@H]12 [Betulinic acid] | No effect | –
5 | NCCC(O)C(=O)NC1CC(N)C(OC2OC(CN)C(O)[C@H](O)[C@@H]2N)[C@H](OC2O[C@H](CO)[C@@H](O)[C@@H]2O)[C@@H]1O.O=S(=O)(O)O.O=S(=O)(O)O (stereo partly shown) [Butirosin disulfate salt] | No effect | –
6 | NC(N)=NOCC[C@H](N)C(=O)O.O.O=S(=O)(O)O [Canavanine sulfate monohydrate (L,+)] | No effect | –
7 | COc1cc(O)cc(O)c1C(=O)/C=C/c1ccccc1 [Cardamonin] | No effect | –
8 | COc1c2c(cc3oc(CO)cc(=O)c13)O[C@H](C(C)(C)O)C2 [Cimifugin] | No effect | –
9 | C[C@H]1[C@H]2CC[C@H]3[C@@H]4CC=C5C[C@@H](N(C)C)CC[C@]5(C)[C@H]4CC[C@]23CN1C [Conessine] | No effect | –
10 | O=c1c(-c2ccc(O)cc2)coc2cc(O[C@@H]3O[C@H](CO)[C@@H](O)[C@H](O)[C@H]3O)cc(O)c12 [Genistin] | No effect | –
11 | CN(C)Cc1c[nH]c2ccccc12 [Gramine] | No effect | –
12 | COc1ccc2c3c([nH]c2c1)C(C)=NCC3 [Harmaline hydrochloride dihydrate] | No effect | Results of 1st screen on AR ([1]; listed as harmaline): inactive
13 | CC1=NCCc2c1[nH]c1cc(O)ccc21 [Harmalol hydrochloride dihydrate] | No effect | Results of 1st screen on AR ([1]; listed as harmalol): inactive
14 | Cc1nccc2c1[nH]c1ccccc12 [Harmane hydrochloride] | Inhibition | Results of confirmatory screen (validation of AR inhibition) [1]: Not confirmed; Results of 1st screen on AR ([1]; listed as harmane): active inhibitors of AR transcriptional activity
15 | COc1ccc2c(c1)[nH]c1c(C)nccc12 [Harmine hydrochloride] | Inhibition | Results of confirmatory screen (validation of AR inhibition) [1]: Confirmed; Nature of AR inhibition (competitive or non-competitive) [1]: non-competitive manner; Results of 1st screen on AR ([1]; listed as harmine): active inhibitors of AR transcriptional activity; Results of confirmatory screen (validation of AR inhibition) ([1]; listed as harmine): could impair the transcriptional activity of AR; Effect on luciferase activity in control cells [2]: no effect
16 | COc1ccc([C@@H]2CC(=O)c3c(O)cc(O[C@@H]4O[C@H](CO[C@@H]5O[C@@H](C)[C@H](O)[C@@H](O)[C@H]5O)[C@@H](O)[C@H](O)[C@H]4O)cc3O2)cc1O [Hesperidin] | No effect | –
17 | Br.CC[C@H]1CN2CCC1C[C@H]2[C@H](O)c1ccnc2ccc(OC)cc12.O (stereo partly shown) [Hydroquinine hydrobromide hydrate] | No effect | –
18 | O=C1Nc2ccccc2/C1=C1/Nc2ccccc2C1=O [Indirubin] | No effect | –
19 | CC1=C2C(=O)[C@H]3[C@@H](CC=C4C[C@@H](O)CC[C@@]43C)[C@@H]2CC[C@]12O[C@@H]1C[C@H](C)CN[C@H]1[C@H]2C [Jervine] | No effect | –
20 | O=C1CCC[C@@H]2[C@H]3CCCN4CCC[C@@H](CN12)[C@@H]34 [Matrine] | No effect | –

Row | Compound | Results of 1st screen on AR [1] | other results
21 | C=C(C)[C@@H]1[C@H]2OC(=O)[C@@H]1[C@]1(O)C[C@H]3O[C@]34C(=O)O[C@H]2[C@]14C [Picrotoxinin] | No effect | –
22 | CC[C@@H](C)C(=O)O[C@H]1[C@H](O)[C@H]2[C@@H](CN3C[C@@H](C)CC[C@H]3[C@@]2(C)O)[C@@H]2C[C@]34O[C@]5(O)[C@@H](OC(=O)[C@@](C)(O)CC)CC[C@@]3(C)[C@@H]5[C@@H](OC(C)=O)[C@@H](OC(C)=O)[C@H]4[C@@]21O [Protoveratrine A] | No effect | –
23 | CN1[C@@H]2CCC[C@H]1CC(=O)C2.Cl [Pseudopelletierine hydrochloride] | No effect | –
24 | O=c1c2ccccc2nc2n1CCc1c-2[nH]c2ccccc12 [Rutaecarpine] | No effect | –
25 | C[C@@H]1O[C@@H](OC[C@H]2O[C@@H](Oc3c(-c4ccc(O)c(O)c4)oc4cc(O)cc(O)c4c3=O)[C@H](O)[C@@H](O)[C@@H]2O)[C@H](O)[C@H](O)[C@H]1O [Rutin] | No effect | –
26 | OCc1ccccc1O[C@@H]1O[C@H](CO)[C@@H](O)[C@H](O)[C@H]1O [Salicin] | No effect | –
27 | C[C@@H]1NCCc2cc(O)c(O)cc21 [Salsolinol hydrobromide] | No effect | –
28 | COc1ccc2c(OC)c3ccoc3nc2c1OC [Skimmianine] | No effect | –
29 | C[C@@H]1CC[C@@]2(NC1)O[C@H]1C[C@H]3[C@@H]4CC=C5C[C@@H](O)CC[C@]5(C)[C@H]4CC[C@]3(C)[C@H]1[C@@H]2C [Solasodine] | No effect | –
30 | C[N+]1(C)CCC[C@H]1C(=O)[O-].Cl [Stachydrine hydrochloride] | No effect | –
31 | O=c1cc(-c2ccc(O)cc2)oc2c([C@@H]3O[C@H](CO)[C@@H](O)[C@H](O)[C@H]3O)c(O)cc(O)c12 [Vitexin] | No effect | –
32 | C[C@]12CC[C@H](O)C[C@H]1CC[C@@H]1[C@@H]2CC[C@]2(C)[C@@H](C3=CC(=O)OC3)CC[C@]12O [digitoxigenin] | active inhibitors of AR transcriptional activity | –
33 | Cc1c2ccncc2c(C)c2c1[nH]c1ccccc12 [ellipticine] | active inhibitors of AR transcriptional activity | Nature of AR inhibition (competitive or non-competitive) [1]: non-competitive manner; Results of confirmatory screen (validation of AR inhibition) ([1]; six concentrations, absence or presence of 1 nM or 100 nM R1881): could impair the transcriptional activity of AR; Effect on luciferase activity in control cells [2]: no effect
34 | C=CCc1ccc(O)c(-c2ccc(O)c(CC=C)c2)c1 [honokiol] | active inhibitors of AR transcriptional activity | –
35 | COc1ccc2[nH]c3c(c2c1)CCN=C3C [methoxy-6-harmalan] | inactive | –
36 | CN1CCc2cc3c(c4c2C1Cc1ccccc1-4)OCO3 (stereo not shown) [remerine] | active inhibitors of AR transcriptional activity | –
37 | Evodiamine | No effect | –
38 | Foliosidine | No effect | –
39 | Retrorsine | No effect | –
40 | strophantin | active inhibitors of AR transcriptional activity | –
